Data: US8802597B2, “Herbicidal pyrimidines” (E I du Pont de Nemours and Company, priority 2003, dated 2014)

Experiments:
Format in all cases: in vivo
[1] = system: velvetleaf (Abutilon theophrasti); assay: Test B pre/postemergence
Summary of the method: (§1)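 Visual rating, 0 (no effect) to 100 (complete control) versus controls, taken 13–15 days after treatment in greenhouse. Compounds formulated in non-phytotoxic solvent plus surfactant; pre: sprayed after seeding; post: plants at 1- to 4-leaf stage, 2–18 cm.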

corn (Zea mays) = assay: Test B pre/postemergence
Summary of the method: as §1

[2] = system: pigweed (Amaranthus retroflexus); assay: Test B pre/postemergence
Summary of the method: as §1

[3] = system: wheat (Triticum aestivum); assay: Test B pre/postemergence
Summary of the method: as §1

[4] = system: barnyardgrass (Echinochloa crus-galli); assay: Test B pre/postemergence
Summary of the method: as §1

[5] = system: giant foxtail (Setaria faberii); assay: Test B pre/postemergence
Summary of the method: as §1

[6] = system: lambsquarters (Chenopodium album); assay: Test B pre/postemergence
Summary of the method: as §1

[7] = system: crabgrass (Digitaria sanguinalis); assay: Test B pre/postemergence
Summary of the method: as §1

[8] = system: Surinam grass (Brachiaria decumbens); assay: Test B pre/postemergence
Summary of the method: as §1

[9] = system: morningglory (Ipomoea coccinea); assay: Test B pre/postemergence
Summary of the method: as §1

[10] = system: cocklebur (Xanthium strumarium); assay: Test B pre/postemergence
Summary of the method: as §1

[11] = system: blackgrass (Alopecurus myosuroides); assay: Test B postemergence; conditions: for Blackgrass plant response rating: 125 g ai/ha, scale 0 to 100 (0 no effect, 100 complete control); for Plant response rating, Blackgrass: 500 g ai/ha, scale 0 to 100
Summary of the method: as §1

wild oat (Avena fatua) = assay: Test B postemergence; conditions: for Oat, Wild plant response rating: 125 g ai/ha, scale 0 to 100 (0 no effect, 100 complete control); for Plant response rating, Oat, Wild: 500 g ai/ha, scale 0 to 100
Summary of the method: as §1

[12] = system: duck salad (Heteranthera limosa); assay: Test B flooded paddy test; conditions: Flood, 1000 g ai/ha; scale 0 to 100
Summary of the method: (§2)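 Visual injury scoring (0 = no effect, 100 = complete control) versus controls made 13 to 15 days after treatment in the greenhouse. Test species were grown in flooded paddy to the 2-leaf stage: rice, barnyardgrass, umbrella sedge, duck salad.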

rice (Oryza sativa) = assay: Test B flooded paddy test; conditions: Flood, 1000 g ai/ha; scale 0 to 100
Summary of the method: as §2

[13] = system: barnyardgrass (Echinochloa crus-galli); assay: Test B flooded paddy test; conditions: Flood, 1000 g ai/ha; scale 0 (no effect) to 100 (complete control)
Summary of the method: as §2

[14] = system: umbrella sedge (Cyperus difformis); assay: Test B flooded paddy test; conditions: Flood, 1000 g ai/ha; scale 0 to 100
Summary of the method: as §2

[15] = Postemergence, 125 g ai/ha, scale 0 to 100 (0 no effect, 100 complete control)
[16] = Postemergence, 500 g ai/ha, scale 0 to 100
[17] = Preemergence, 125 g ai/ha, scale 0 to 100 (0 no effect, 100 complete control)
[18] = Preemergence, 500 g ai/ha, scale 0 to 100 (0 no effect, 100 complete control)

CCCOC(=O)c1nc(C2CC2)nc(N)c1Br [Compound 15]
100: Velvetleaf plant response rating [1, 18] | Plant response rating, Pigweed [2, 16] | Pigweed plant response rating [2, 18] | Lambsquarters plant response rating [6, 15] | Plant response rating, Lambsquarters [6, 16] | Lambsquarters plant response rating [6, 18] | Morningglory plant response rating [9, 15] | Plant response rating, Morningglory [9, 16] | Morningglory plant response rating [9, 18] | Cocklebur plant response rating [10, 15] | Plant response rating, Cocklebur [10, 16] | Cocklebur plant response rating [10, 18]
60: Wheat plant response rating [3, 18] | Plant response rating, Crabgrass [7, 16] | Surinam Grass plant response rating [8, 15]
80: Velvetleaf plant response rating [1, 15] | Plant response rating, Corn (corn (Zea mays); [16]) | Corn plant response rating (corn (Zea mays); [18]) | Pigweed plant response rating [2, 15] | Foxtail, Giant plant response rating [5, 18] | Plant response rating, Blackgrass [11] | Plant response rating, Ducksalad [12]
70: Plant response rating, Velvetleaf [1, 17] | Plant response rating, Wheat [3, 16] | Plant response rating, Foxtail, Giant [5, 16] | Plant response rating, Crabgrass [7, 17] | Plant response rating, Morningglory [9, 17] | Plant response rating, Cocklebur [10, 17] | Blackgrass plant response rating [11] | Plant response rating, Oat, Wild (wild oat (Avena fatua)) | Plant response rating, Rice (rice (Oryza sativa)) | Plant response rating, Sedge, Umbrella [14]
90: Plant response rating, Velvetleaf [1, 16] | Plant response rating, Pigweed [2, 17] | Barnyardgrass plant response rating [4, 15] | Plant response rating, Barnyardgrass [4, 16] | Barnyardgrass plant response rating [4, 18] | Plant response rating, Lambsquarters [6, 17] | Crabgrass plant response rating [7, 18] | Plant response rating, Surinam Grass [8, 16] | Surinam Grass plant response rating [8, 18] | Plant response rating, Barnyardgrass [13]
40: Wheat plant response rating [3, 15] | Plant response rating, Wheat [3, 17] | Plant response rating, Barnyardgrass [4, 17] | Foxtail, Giant plant response rating [5, 15] | Plant response rating, Foxtail, Giant [5, 17]
50: Corn plant response rating (corn (Zea mays); [15])
20: Plant response rating, Corn (corn (Zea mays); [17])
30: Crabgrass plant response rating [7, 15] | Plant response rating, Surinam Grass [8, 17]
10: Oat, Wild plant response rating (wild oat (Avena fatua))

CCCCOC(=O)c1nc(C2CC2)nc(N)c1Br [Compound 16]
30: Corn plant response rating (corn (Zea mays); [15]) | Plant response rating, Corn (corn (Zea mays); [17]) | Wheat plant response rating [3, 15] | Plant response rating, Barnyardgrass [4, 17] | Foxtail, Giant plant response rating [5, 15] | Plant response rating, Foxtail, Giant [5, 17] | Crabgrass plant response rating [7, 15]
50: Plant response rating, Wheat [3, 17]
40: Plant response rating, Surinam Grass [8, 17]
60: Plant response rating, Wheat [3, 16] | Wheat plant response rating [3, 18] | Surinam Grass plant response rating [8, 15] | Plant response rating, Oat, Wild (wild oat (Avena fatua)) | Plant response rating, Sedge, Umbrella [14]
70: Corn plant response rating (corn (Zea mays); [18]) | Barnyardgrass plant response rating [4, 15] | Plant response rating, Crabgrass [7, 17] | Plant response rating, Cocklebur [10, 17] | Plant response rating, Blackgrass [11] | Plant response rating, Rice (rice (Oryza sativa))
10: Blackgrass plant response rating [11] | Oat, Wild plant response rating (wild oat (Avena fatua))
80: Velvetleaf plant response rating [1, 15] | Plant response rating, Velvetleaf [1, 17] | Plant response rating, Corn (corn (Zea mays); [16]) | Plant response rating, Foxtail, Giant [5, 16] | Foxtail, Giant plant response rating [5, 18] | Plant response rating, Crabgrass [7, 16] | Surinam Grass plant response rating [8, 18]
90: Plant response rating, Velvetleaf [1, 16] | Pigweed plant response rating [2, 15] | Plant response rating, Pigweed [2, 17] | Pigweed plant response rating [2, 18] | Plant response rating, Barnyardgrass [4, 16] | Barnyardgrass plant response rating [4, 18] | Plant response rating, Surinam Grass [8, 16] | Plant response rating, Morningglory [9, 17] | Cocklebur plant response rating [10, 15] | Plant response rating, Ducksalad [12] | Plant response rating, Barnyardgrass [13]
100: Velvetleaf plant response rating [1, 18] | Plant response rating, Pigweed [2, 16] | Lambsquarters plant response rating [6, 15] | Plant response rating, Lambsquarters [6, 16] | Plant response rating, Lambsquarters [6, 17] | Lambsquarters plant response rating [6, 18] | Crabgrass plant response rating [7, 18] | Morningglory plant response rating [9, 15] | Plant response rating, Morningglory [9, 16] | Morningglory plant response rating [9, 18] | Plant response rating, Cocklebur [10, 16] | Cocklebur plant response rating [10, 18]

CC(C)COC(=O)c1nc(C2CC2)nc(N)c1Br [Compound 17]
90: Velvetleaf plant response rating [1, 18] | Plant response rating, Pigweed [2, 16] | Plant response rating, Barnyardgrass [4, 16] | Plant response rating, Lambsquarters [6, 17] | Surinam Grass plant response rating [8, 18] | Cocklebur plant response rating [10, 18] | Plant response rating, Ducksalad [12]
30: Surinam Grass plant response rating [8, 15] | Plant response rating, Surinam Grass [8, 17]
40: Plant response rating, Wheat [3, 17]
100: Plant response rating, Velvetleaf [1, 16] | Pigweed plant response rating [2, 18] | Lambsquarters plant response rating [6, 15] | Plant response rating, Lambsquarters [6, 16] | Lambsquarters plant response rating [6, 18] | Crabgrass plant response rating [7, 18] | Morningglory plant response rating [9, 15] | Plant response rating, Morningglory [9, 16] | Plant response rating, Morningglory [9, 17] | Morningglory plant response rating [9, 18] | Cocklebur plant response rating [10, 15] | Plant response rating, Cocklebur [10, 16]
20: Barnyardgrass plant response rating [4, 15] | Plant response rating, Barnyardgrass [4, 17] | Plant response rating, Foxtail, Giant [5, 17] | Crabgrass plant response rating [7, 15]
80: Plant response rating, Corn (corn (Zea mays); [16]) | Plant response rating, Pigweed [2, 17] | Barnyardgrass plant response rating [4, 18] | Plant response rating, Surinam Grass [8, 16] | Plant response rating, Cocklebur [10, 17] | Plant response rating, Barnyardgrass [13]
60: Velvetleaf plant response rating [1, 15] | Corn plant response rating (corn (Zea mays); [18]) | Plant response rating, Wheat [3, 16] | Wheat plant response rating [3, 18]
0: Corn plant response rating (corn (Zea mays); [15]) | Plant response rating, Corn (corn (Zea mays); [17]) | Wheat plant response rating [3, 15] | Blackgrass plant response rating [11] | Oat, Wild plant response rating (wild oat (Avena fatua))
10: Foxtail, Giant plant response rating [5, 15]
70: Plant response rating, Velvetleaf [1, 17] | Pigweed plant response rating [2, 15] | Plant response rating, Foxtail, Giant [5, 16] | Foxtail, Giant plant response rating [5, 18] | Plant response rating, Crabgrass [7, 17] | Plant response rating, Blackgrass [11]
50: Plant response rating, Crabgrass [7, 16] | Plant response rating, Oat, Wild (wild oat (Avena fatua)) | Plant response rating, Rice (rice (Oryza sativa)) | Plant response rating, Sedge, Umbrella [14]
